{"source": "patent US8623377B2", "about": "“Joint-homing peptides and uses thereof” (University of Maryland, Baltimore, priority 2011, dated 2014)", "key": {"[1]": {"tested_on": "hind paw joints of arthritic Lewis rats", "test": "Histopathological evaluation of hind paw joints of arthritic rats", "assay_type": "in vivo, Lewis rat", "settings": "H&E-stained hind paw sections", "description": "(§1) FIG. 3A: Group of arthritic Lewis rats (n=4 per group) were injected with a peptide (AD, NQR, or RGD) or PBS i.v. on the days indicated by the arrows either at the onset or just after the onset of arthritis. The its were monitored regularly for the disease severity, presented as “arthritic score”. […] The sections were graded for histopathological features associated with arthritis. B, bone; C, cartilage, JS, joint space; SIC, synovium-infiltrating cells.\n(§2) The synthetic peptide corresponding to the selected phage-encoded peptide was diluted in PBS and injected i.v. into Lewis rats beginning either at the onset or just after the onset of arthritis after Mtb injection. The peptide was injected to rats on alternate days at a dose of 1 or 2 mg/kg body weight. A total of three or four injections were given to each rat. Control animals received an equal volume of PBS. All rats were graded regularly for clinical signs of arthritis (36). The hind paws of these rats were harvested and processed for histopathological examination.\nHind paws of rats were harvested, skinned, and fixed with 10% phosphate buffered formalin (Fisher Scientific) for 3-7 d (1). […] Tissue sections (5 μm) were placed on a glass slide, stained with H&E (Sigma-Aldrich), and assessed for morphological changes and cellular infiltrates."}, "[2]": {"tested_on": "adjuvant arthritis in Lewis rats", "test": "Antiarthritic activity in the adjuvant arthritis (AA) model, arthritic score", "assay_type": "in vivo, Lewis rat", "description": "as §1, §2\nAA was induced in Lewis rats by immunizing them with 1 mg/rat of heat-killed M. tuberculosis H37Ra (Mtb; Difco) in 200 μL of mineral oil (Sigma-Aldrich) via s.c. injection at the base of the tail. Beginning on day 7 after immunization, the rats were observed regularly for signs of arthritis in the paws. The severity of arthritis was evaluated based on erythema and swelling as described previously. The highest score for each paw was 4, and the total maximum score for each rat was 16. The course of AA in the Lewis rat involved the following phases: incubation (days 0-8), onset (days 9-11), peak (days 15-18), and recovery (days 21-27)."}, "[3]": {"tested_on": "leukocyte infiltration into the joints of arthritic rats", "test": "In vivo migration of PKH67-labeled leukocytes into the joints", "set-up": "species or system Lewis rat"}, "ERK1/2": {"tested_on": "ERK1/2", "test": "VEGF-induced signaling in HUVECs, Western blot p-ERK1/2", "assay_type": "cell-based, human", "settings": "peptide 10, 50, 100 μg/mL 1 h, then VEGF 10 ng/mL 20 min", "from_the_text": "FIG. 6A: HUVECs were stimulated with VEGF and treated with the indicated concentrations of peptides. Phosphorylated ERK1/2 and Akt, as well as total ERK1/2 and Akt, were detected by Western blot analysis. FIG. 6B: Thereafter, p-ERK1/2 and p-Akt were quantified by densitometry, normalized to total ERK1/2 (left) and Akt (right), respectively, and compared with cells in serum-free medium. The results of a representative experiment from a set of three independent experiments are shown. *P<0.05, compared with the positive control.\nHUVECs were grown in F-12K medium in the presence of endothelial cell growth supplement (ECGS) (BD Biosciences) and 15% FBS. Confluent cells were starved in basal medium (without ECGS and FBS) for 6 h. Then the cells were pretreated for 1 h with different concentrations (10, 50, and 100 μg/mL) of a peptide (NQR, ADK, or RGD) in fresh basal medium, followed by treatment with VEGF (10 ng/mL) for another 20 min. The conditional medium was discarded, and the cells were lysed using a lysis buffer containing protease inhibitors and phosphatase inhibitors. The cell lysate was then centrifuged, and the resulting supernatant was used for analysis of signaling molecules using specific antibodies to human pERK1/2, ERK1/2, pAkt, Akt, and GAPDH (Cell Signaling Technology) by Western blot analysis. The intensity of the bands in the gel was quantified by densitometry. The levels of p-ERK1/2 and p-Akt were normalized to total ERK1/2 and Akt, respectively, and compared with cells in serum-free medium."}, "[4]": {"tested_on": "HUVECs attachment to vitronectin", "test": "Attachment of HUVECs to vitronectin", "assay_type": "cell-based, human", "settings": "peptide 30-800 μg/mL, 1 h on vitronectin-coated wells", "description": "HUVECs were first suspended in F-12K medium containing the indicated concentrations of NQR, AK or RGD peptide and then incubated for 1 h in microtiter wells coated with vitronectin. The number of cells that attached to vitronectin was quantified. The results of three independent experiments are shown. *P<0.05, compared with the baseline control.\nThe attachment of HUVECs to vitrnectin was quantified as described (37, 38). Microtiter wells were coated overnight at 4° C. with 2 μg/mL of vitronectin (BD Biosciences). These wells were then blocked for 1 h at 37° C. with 10 mg/mL of BSA (Sigma-Aldrich). In parallel, HUVECs (1.5×10^5 cells/mL) suspended in F-12K medium containing 10% FBS were incubated for 15 min at 37° C. with different concentrations (30-800 μg/mL) of NQR, ADK, or RGD peptide. Thereafter, this cell suspension 100 μL/well) was added to the vitronectin-coated wells, followed by incubation at 37° C. for 1 h. After washing, the number of attached cells was determined using crystal violet (Fisher Scientific)."}, "LPS-stimulated HUVECs": {"tested_on": "LPS-stimulated HUVECs", "test": "Internalization of FITC-labeled peptide in LPS-stimulated HUVECs", "assay_type": "cell-based, human", "description": "FIG. 2A: Binding of specific phage encoding the peptide NQR or ADK to the vascular endothelium was visualized by immunohistochemical examination of the hind paw section of the rthritic rats using the anti-T7 phage antibody. The binding of phage was tested in the presence or absence of the corresponding synthetic peptide. BV, blood vessel, L, lumen. FIG. 2B: Arthritic rats were injected with specific phage (ADK phage, left; NQR phage, center; or RGD phage, right) in the presence or absence of the corresponding synthetic peptide, and the titer of the phage recovered from the synovial tissue was assessed. *P<0.01. FIG. 2C: CD31-expressing endothelial cells were isolated from arthritic rat joints (upper) or the liver (lower) and stained with DAPI (blue), FITC-labeled peptide NQR (green), or Alexa Fluor 594-labeled anti-rat CD31 antibody (red). Also shown is the staining overlay (merge) of green and red (yellow). The inset is an enlarged view of a single cell; original magnification, 20×. FIG. 2D: LPS-stimulated HUVECs were stained with DAPI and FITC-labeled peptide NQR and observed under a fluorescence microscope, original magnification, 100×."}}}
{"sequence": "CLDNQRPKC (Synthetic peptide homing to joint in an animal) [NQR peptide, joint-homing phage-derived synthetic peptide]", "values": [{"measurement": "joint damage (histopathology) versus PBS-treated arthritic rats", "setting": "[1]", "result": "much less damage"}, {"measurement": "difference in arthritic score versus PBS/ADK", "setting": "[2]; from day 15 to day 27 (FIG. 3A center)", "result": "significant"}, {"measurement": "difference in arthritic score versus PBS", "setting": "[2]; from day 15 to day 27 (FIG. 3A right)", "result": "significant"}, {"measurement": "suppression of the arthritic process", "setting": "[2]; i.v. injection around the time of onset of arthritis, 1 or 2 mg/kg on alternate days", "result": "suppressed the arthritic process in a dose-dependent manner"}, {"measurement": "down-modulation of arthritis", "setting": "[2]; injected just after the onset of AA", "result": "effective in down-modulating arthritis"}, {"measurement": "cell type on which the effect on infiltration was more marked", "setting": "[3]; CD3+ T cells vs CD11b/c+ myeloid cells, flow cytometry", "result": "more marked on CD3+ T cells than on CD11b/c+ myeloid cells"}, {"measurement": "leukocyte infiltration into the joints", "setting": "[3]; versus nontreated arthritic or ADK-treated arthritic rats, 24 h after cell transfer", "result": "significantly less leukocyte infiltration"}, {"measurement": "effect on VEGF-induced pERK", "setting": "ERK1/2", "result": "induced a decrease in pERK"}, {"measurement": "effect on attachment of HUVECs to vitronectin", "setting": "[4]", "result": "Neither peptide had any effect"}, {"measurement": "cellular uptake of peptide", "setting": "LPS-stimulated HUVECs; FITC-labeled peptide, LPS-stimulated HUVECs", "result": "transported across the cell membrane into the cytoplasm and the nucleus"}, {"measurement": "time by which most peptide accumulated in the perinuclear area", "setting": "LPS-stimulated HUVECs; after addition to the cells", "result": "≤ 45", "unit": "min"}]}
